Experimental data: the NIST ThermoML archive (doi:10.1021/je4002009)

Test: mn = molality of the nth substance listed, in mol/kg
Details: 101 kPa, Liquid; for viscosity: Capillary tube (Ostwald / Ubbelohde) method

CN1CCCC1=O.Cc1ccc(S(=O)(=O)O)cc1 [1-methyl-2-pyrrolidinone p-toluenesulfonate] + O
Details | mass density, 298.15 K [kg/m3] | mass density, 303.15 K [kg/m3] | mass density, 308.15 K [kg/m3] | viscosity, 298.15 K [mPa·s] | viscosity, 303.15 K [mPa·s] | viscosity, 308.15 K [mPa·s]
m1 = 0.0499 | 999.98 | 998.53 | 996.06 | 0.9405 | 0.8355 | 0.7579
m1 = 0.1012 | 1002.71 | 1000.47 | 998.66 | 0.9707 | 0.8613 | 0.7776
m1 = 0.1588 | 1005.8 | 1004.01 | 1002.3 | 0.9996 | 0.8905 | 0.8002
m1 = 0.1983 | 1007.95 | 1006.37 | 1004.65 | 1.021 | 0.9097 | 0.8164
m1 = 0.2691 | 1011.73 | 1010.16 | 1008.34 | 1.059 | 0.9445 | 0.8406
m1 = 0.3004 | 1013.31 | 1011.73 | 1009.85 | 1.077 | 0.9602 | 0.8511
m1 = 0.3421 | 1015.42 | 1013.71 | 1011.83 | 1.1 | 0.9826 | 0.8691
m1 = 0.398 | 1018.29 | 1016.41 | 1014.42 | 1.13 | 1.007 | 0.892
m1 = 0.4495 | 1020.8 | 1018.89 | 1016.77 | 1.155 | 1.03 | 0.9131
m1 = 0.5139 | 1023.87 | 1021.88 | 1019.63 | 1.191 | 1.058 | 0.9369
m1 = 0.6053 | 1028.17 | 1026.17 | 1023.9 | 1.241 | 1.099 | 0.9752
m1 = 0.6615 | 1030.76 | 1028.65 | 1026.41 | 1.272 | 1.127 | 0.9976
m1 = 0.7504 | 1034.66 | 1032.58 | 1030.21 | 1.319 | 1.169 | 1.036
m1 = 0.7605 | 1035.06 | 1033 | 1030.65 | 1.324 | 1.173 | 1.04
m1 = 0.8335 | 1038.2 | 1036.01 | 1033.59 | 1.366 | 1.207 | 1.072
m1 = 0.9023 | 1041.05 | 1038.67 | 1036.34 | 1.411 | 1.244 | 1.106
m1 = 1.007 | 1045.23 | 1042.61 | 1040.36 | 1.477 | 1.299 | 1.161
m1 = 1.201 | 1052.61 | 1050.61 | 1048.17 | 1.61 | 1.409 | 1.266

CN1CCCC1=O.O=S(=O)(O)c1ccccc1 [1-methyl-2-pyrrolidinone benzenesulfonate] + O
Details | mass density, 298.15 K [kg/m3] | mass density, 303.15 K [kg/m3] | mass density, 308.15 K [kg/m3] | viscosity, 298.15 K [mPa·s] | viscosity, 303.15 K [mPa·s] | viscosity, 308.15 K [mPa·s]
m1 = 0.0521 | 1000.25 | 998.54 | 996.69 | 0.9266 | 0.8213 | 0.7506
m1 = 0.1042 | 1003.16 | 1001.68 | 999.93 | 0.9506 | 0.845 | 0.7706
m1 = 0.1369 | 1004.9 | 1003.46 | 1001.57 | 0.9685 | 0.8602 | 0.7809
m1 = 0.2057 | 1008.79 | 1007.07 | 1004.83 | 1.003 | 0.8912 | 0.8063
m1 = 0.2512 | 1011.09 | 1009.23 | 1006.69 | 1.028 | 0.9109 | 0.8208
m1 = 0.2984 | 1013.59 | 1011.55 | 1008.84 | 1.055 | 0.9313 | 0.8393
m1 = 0.3556 | 1016.55 | 1014.41 | 1011.59 | 1.083 | 0.9567 | 0.8611
m1 = 0.4028 | 1018.9 | 1016.7 | 1013.74 | 1.107 | 0.9774 | 0.8786
m1 = 0.4537 | 1021.44 | 1019.25 | 1016.36 | 1.133 | 1.002 | 0.8972
m1 = 0.5093 | 1024.16 | 1022.14 | 1019.21 | 1.16 | 1.025 | 0.9174
m1 = 0.6018 | 1028.61 | 1026.63 | 1023.82 | 1.204 | 1.065 | 0.9514
m1 = 0.6492 | 1030.83 | 1028.91 | 1026.28 | 1.226 | 1.085 | 0.9692
m1 = 0.7511 | 1035.5 | 1033.54 | 1030.78 | 1.277 | 1.13 | 1.009
m1 = 0.8129 | 1038.24 | 1036.23 | 1033.29 | 1.309 | 1.158 | 1.034
m1 = 0.871 | 1040.72 | 1038.49 | 1035.54 | 1.341 | 1.185 | 1.059
m1 = 0.9001 | 1042.02 | 1039.67 | 1036.66 | 1.358 | 1.198 | 1.072
m1 = 1.019 | 1047.01 | 1044.27 | 1041.12 | 1.423 | 1.257 | 1.127
m1 = 1.199 | 1054.33 | 1052.06 | 1049.61 | 1.54 | 1.358 | 1.219

O=C1CCC[NH+]1C1CCCCC1.O=S(=O)([O-])c1ccccc1 [1-cyclohexyl-2-oxopyrrolidin-1-ium benzenesulfonate] + O
Details | mass density, 298.15 K [kg/m3] | mass density, 303.15 K [kg/m3] | mass density, 308.15 K [kg/m3] | viscosity, 298.15 K [mPa·s] | viscosity, 303.15 K [mPa·s] | viscosity, 308.15 K [mPa·s]
m1 = 0.0509 | 999.45 | 997.89 | 995.97 | 0.9377 | 0.8235 | 0.7406
m1 = 0.1005 | 1002.85 | 1001.35 | 999.03 | 0.9703 | 0.8645 | 0.7786
m1 = 0.1478 | 1005.4 | 1003.96 | 1001.85 | 1.01 | 0.8892 | 0.8095
m1 = 0.1987 | 1007.93 | 1006.42 | 1004.55 | 1.057 | 0.9268 | 0.8407
m1 = 0.2532 | 1010.59 | 1009.02 | 1007.24 | 1.11 | 0.9692 | 0.8758
m1 = 0.3009 | 1013.05 | 1011.32 | 1009.49 | 1.153 | 1.009 | 0.9088
m1 = 0.3497 | 1015.5 | 1013.84 | 1011.74 | 1.199 | 1.051 | 0.9404
m1 = 0.4013 | 1018.26 | 1016.55 | 1014.3 | 1.247 | 1.097 | 0.9772
m1 = 0.4514 | 1021.07 | 1019.24 | 1016.92 | 1.292 | 1.141 | 1.013
m1 = 0.5008 | 1023.74 | 1022.03 | 1019.52 | 1.337 | 1.181 | 1.046
m1 = 0.5492 | 1026.44 | 1024.55 | 1022.06 | 1.383 | 1.224 | 1.083
m1 = 0.6024 | 1029.39 | 1027.42 | 1024.91 | 1.432 | 1.268 | 1.123
m1 = 0.6506 | 1031.86 | 1029.91 | 1027.47 | 1.479 | 1.309 | 1.163
m1 = 0.7603 | 1037.45 | 1035.1 | 1032.83 | 1.588 | 1.405 | 1.249
m1 = 0.7986 | 1039.18 | 1036.89 | 1034.62 | 1.631 | 1.442 | 1.283
m1 = 0.9023 | 1043.64 | 1041.09 | 1038.92 | 1.736 | 1.535 | 1.373
m1 = 0.9974 | 1047.35 | 1044.52 | 1042.51 | 1.838 | 1.623 | 1.448
m1 = 1.199 | 1054.63 | 1052.23 | 1049.68 | 2.08 | 1.81 | 1.617

Cc1ccc(S(=O)(=O)O)cc1.O=C1CCCN1C1CCCCC1 [1-cyclohexyl-2-pyrrolidinone 4-methylbenzenesulfonate] + O
Details | mass density, 298.15 K [kg/m3] | mass density, 303.15 K [kg/m3] | mass density, 308.15 K [kg/m3] | viscosity, 298.15 K [mPa·s] | viscosity, 303.15 K [mPa·s] | viscosity, 308.15 K [mPa·s]
m1 = 0.0502 | 1000.25 | 998.76 | 997.02 | 0.9563 | 0.8427 | 0.7524
m1 = 0.1025 | 1003.22 | 1001.6 | 999.85 | 0.9991 | 0.8853 | 0.7957
m1 = 0.1513 | 1005.86 | 1004.3 | 1002.49 | 1.035 | 0.9171 | 0.8304
m1 = 0.1991 | 1008.58 | 1006.95 | 1005.1 | 1.082 | 0.9514 | 0.8636
m1 = 0.2492 | 1011.41 | 1009.76 | 1007.84 | 1.134 | 0.9897 | 0.8957
m1 = 0.3015 | 1014.32 | 1012.57 | 1010.6 | 1.186 | 1.036 | 0.9333
m1 = 0.3524 | 1017.03 | 1015.23 | 1013.12 | 1.24 | 1.08 | 0.9639
m1 = 0.4007 | 1019.46 | 1017.48 | 1015.41 | 1.289 | 1.123 | 0.9982
m1 = 0.4491 | 1021.74 | 1019.79 | 1017.58 | 1.337 | 1.165 | 1.029
m1 = 0.4976 | 1023.93 | 1021.92 | 1019.7 | 1.383 | 1.207 | 1.066
m1 = 0.5503 | 1026.3 | 1024.26 | 1021.89 | 1.435 | 1.254 | 1.104
m1 = 0.6019 | 1028.47 | 1026.37 | 1023.96 | 1.485 | 1.3 | 1.145
m1 = 0.6492 | 1030.43 | 1028.29 | 1025.85 | 1.537 | 1.344 | 1.184
m1 = 0.7521 | 1034.7 | 1032.51 | 1030.01 | 1.648 | 1.44 | 1.272
m1 = 0.8074 | 1037 | 1034.74 | 1032.32 | 1.715 | 1.497 | 1.323
m1 = 0.9012 | 1040.82 | 1038.55 | 1036.16 | 1.829 | 1.596 | 1.412
m1 = 1.002 | 1044.83 | 1042.52 | 1040.19 | 1.966 | 1.7 | 1.506
m1 = 1.199 | 1051.36 | 1048.95 | 1046.4 | 2.233 | 1.907 | 1.688
